Structures can show the parent of a compound that is named as a salt.
What was measured:
[1] = tested on: pyramidal neurons of the prefrontal cortex; assay: Spontaneous inhibitory postsynaptic currents (sIPSCs) in acute prefrontal cortex slices; type: cell-based, mouse; conditions: 10 μM, bath application
Procedure: (§1) 300‐μm‐thick transverse slices comprising the medial prefrontal cortex (mPFC) area were prepared from 7‐ to 8‐week‐old C57Bl/6 mice as described previously (Teng et al, 2013; Agarwal et al, 2014). All recordings were performed in cortical layer V projection neurons. The bath solution consisted of oxygenated artificial cerebrospinal fluid (ACSF) containing NaCl 126 mM, KCl 3 mM, NaH2PO4 1.25 mM, MgSO4 1 mM, NaHCO3 26 mM, CaCl2 2 mM, glucose 10 mM, and the pH 7.2 adjusted with NaOH. Spontaneous GABAergic inhibitory postsynaptic currents (sIPSC) and evoked GABAergic inhibitory postsynaptic currents (eIPSC) were recorded at a holding potential of −70 mV in the presence of 6‐cyano‐7‐nitroquinoxaline‐2,3‐dione (CNQX, 10 μM) and DL‐2‐amino‐5‐phosphonovaleric acid (D‐APV, 50 μM). Glass pipettes were filled with the solution containing: KCl 140 mM, MgCl2 2 mM, CaCl2 1 mM, Na2GTP 0.5 mM, Na2ATP 4 mM, EGTA 10 mM, HEPES 10 mM. Patches with a series resistance of > 25 MΩ, a membrane resistance of < 0.8 GΩ, or leak currents of > 150 pA were excluded. Biphasic rectangular electric pulses (10 ms, 100–300 μA) were applied to layer I of the prelimbic area of mPFC through another glass pipette filled with ACSF. Synaptic currents were acquired at 20 kHz and filtered at 6 kHz, with a Digidata 1440 ADC‐converter coupled to a Multiclamp 700B amplifier (Molecular Devices, USA). Data acquisition was performed using pClamp10 software (Molecular Devices). MiniAnalysis 6.0.9 (Synaptosoft Inc., Decatur, USA) and pClamp10.1 were used for amplitude and frequency analysis of sIPSCs and eIPSCs, respectively. Paired Student's t‐test was used for statistical analysis.

ERBB4-PIK3R1 = target: T1, ERBB4-PIK3R1 (Homo sapiens, UniProt Q15303); assay: ERBB4-PIK3R1 split TEV single-culture dose-response assay, EGFld as stimulus; type: cell-based; conditions: for inhibitory effect in the ERBB4-PIK3R1 single-culture assay: PC12 cells, 10 ng/ml EGFld as stimulus
T1 construct: human full‐length ERBB4‐Cyt1 was fused to the NTEV fragment; expressed in transfected cells; host or cells: PC12 Tet-Off cells (rat)
Source text: For our HTS‐compatible split TEV assay approach, human full‐length ERBB4‐Cyt1 was fused to the NTEV fragment, a TEV protease cleavage site (tevS) and the artificial co‐transcriptional activator Gal4‐VP16 (ERBB4‐NTEV‐tevS‐GV); human PIK3R1 was fused to the CTEV fragment (PIK3R1‐CTEV) (Fig 1A). Upon ERBB4 activation, PIK3R1 is recruited to the receptor resulting in a reconstituted protease activity that cleaves off GV. In turn, released GV translocates to the nucleus and binds to upstream activating sequences (UAS) to activate the transcription of a firefly luciferase reporter gene (Fig 1A). A constitutively expressed Renilla luciferase driven under the control of the human thymidine kinase (TK) promoter was used as control to address off‐target effects related to toxicity.
For one 96‐well plate, 4 × 10^6 PC12 cells were harvested and diluted in 5 ml assay medium (phenol red‐free DMEM (low glucose, Life Technologies), 10% FCS, 5% HS, no antibiotics). The split TEV assay plasmids (2 μg pcDNA3_ERBB4‐NTEV‐tevS‐GV‐2xHA, 2 μg pTag4C_PIK3R1‐CTEV‐2xHA, 2 μg p5xUAS_firefly luciferase, 2 μg pTK_Renilla luciferase, and 0.5 μg pECFP‐C1 for examining transfection efficiency) were diluted in 2.5 ml Opti‐MEM (Life Technologies) and vortexed. In parallel, 20 μl of the transfection reagent Lipofectamine 2000 was diluted in 2.5 ml Opti‐MEM and vortexed.

[2] = tested on: pyramidal neurons of the prefrontal cortex; assay: Evoked inhibitory postsynaptic currents (eIPSCs) in acute prefrontal cortex slices; type: cell-based, mouse; conditions: 5 μM
Procedure: as §1, with “Data acquisition was performed using pClamp10 software (Molecular Devices). MiniAnalysis 6.0.9 (Synaptosoft Inc., Decatur, USA) and pClamp10.1 were used for amplitude and frequency analysis of sIPSCs and eIPSCs, respectively. Paired Student's t‐test was used for statistical analysis.” left out

ERBB4 = ERBB4 (Homo sapiens, UniProt Q15303); assay: Western blot of ERBB4 phosphorylation in T-47D cells; conditions: 10 ng/ml EGFld, 10 μM compound, 5 min
NRG1-ERBB4 signaling = assay: Nrg1-ERBB4-PIK3R1 split TEV co-culture compound screen of the NIH Clinical Collection; type: cell-based, human
[3] = compound screen of the NIH Clinical Collection, sheet raw data NCC-003, compounds ranked by Z-score
[4] = compounds at 10 μM, 24 h, PC12 split TEV assay cells co-cultured with Nrg1-expressing PC12 cells, analysed with cellHTS2

T1 sequence (Q15303 26-1308): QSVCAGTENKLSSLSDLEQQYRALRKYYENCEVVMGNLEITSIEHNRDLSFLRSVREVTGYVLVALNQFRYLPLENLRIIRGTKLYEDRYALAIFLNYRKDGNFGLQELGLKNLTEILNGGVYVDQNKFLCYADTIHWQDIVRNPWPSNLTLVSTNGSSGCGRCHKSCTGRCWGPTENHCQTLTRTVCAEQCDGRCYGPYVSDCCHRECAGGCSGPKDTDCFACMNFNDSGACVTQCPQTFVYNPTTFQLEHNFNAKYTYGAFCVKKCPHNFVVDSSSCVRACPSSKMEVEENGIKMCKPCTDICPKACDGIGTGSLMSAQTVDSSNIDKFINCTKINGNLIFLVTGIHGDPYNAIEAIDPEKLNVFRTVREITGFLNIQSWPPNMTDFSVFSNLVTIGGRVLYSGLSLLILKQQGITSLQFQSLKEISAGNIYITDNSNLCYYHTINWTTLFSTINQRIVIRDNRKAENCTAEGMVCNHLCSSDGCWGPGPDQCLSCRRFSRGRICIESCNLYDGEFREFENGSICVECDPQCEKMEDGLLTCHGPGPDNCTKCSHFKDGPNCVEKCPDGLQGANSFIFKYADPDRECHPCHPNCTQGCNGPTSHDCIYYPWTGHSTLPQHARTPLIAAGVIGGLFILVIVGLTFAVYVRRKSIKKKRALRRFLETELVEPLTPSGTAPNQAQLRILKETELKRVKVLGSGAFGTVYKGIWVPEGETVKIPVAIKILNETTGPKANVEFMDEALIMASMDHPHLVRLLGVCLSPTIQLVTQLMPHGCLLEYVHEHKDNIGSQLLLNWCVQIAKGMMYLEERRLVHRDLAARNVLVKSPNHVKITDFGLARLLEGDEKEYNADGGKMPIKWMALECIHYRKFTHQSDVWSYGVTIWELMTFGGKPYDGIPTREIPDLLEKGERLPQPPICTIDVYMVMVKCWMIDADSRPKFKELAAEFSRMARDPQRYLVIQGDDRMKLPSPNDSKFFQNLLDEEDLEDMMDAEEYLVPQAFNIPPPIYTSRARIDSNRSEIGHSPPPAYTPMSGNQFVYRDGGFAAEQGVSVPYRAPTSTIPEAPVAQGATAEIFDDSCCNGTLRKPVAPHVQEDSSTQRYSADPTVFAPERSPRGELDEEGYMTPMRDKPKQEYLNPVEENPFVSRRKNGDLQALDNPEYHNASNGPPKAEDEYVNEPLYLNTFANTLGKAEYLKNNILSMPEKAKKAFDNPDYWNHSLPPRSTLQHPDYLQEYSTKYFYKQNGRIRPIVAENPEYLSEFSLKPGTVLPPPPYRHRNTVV
Chain of ERBB4 (Q15303 26-1308): as above

In the case of C[C@]12CCC(=O)C=C1C=C[C@@H]1[C@@H]2CC[C@@]2(C)[C@H]1CC[C@@]21CCC(=O)O1 [canrenone], the sIPSC amplitude [1] is reported as “no significant effect”, the sIPSC frequency [1] is reported as “no significant effect” and the “inhibitory effect in the ERBB4-PIK3R1 single-culture assay” value (“inhibitory effect” below) (ERBB4-PIK3R1) is reported as “None of these compounds showed an inhibitory effect”.

In the case of “EGFld: soluble biologically active EGF-like domain of NRG1, used as Nrg1 stimulus (Reprokine, RKQ02297)”, the “EC50, ERBB4-PIK3R1 dose-response assay using EGFld as stimulus” value (ERBB4-PIK3R1; PC12 split TEV assay cells, single culture) is reported as 1 ng/mL.

CS[C@@H]1CC2=CC(=O)CC[C@]2(C)C2CC[C@@]3(C)C(CCC34CCC(=O)O4)C21 (some centres unmarked) was tested, and the “inhibitory effect” value (ERBB4-PIK3R1) was “None of these compounds showed an inhibitory effect”.

With COC(=O)[C@@H]1CC2=CC(=O)CC[C@]2(C)[C@@]23O[C@@H]2C[C@@]2(C)[C@@H](CC[C@@]24CCC(=O)O4)[C@H]13 [eplerenone] the “inhibitory effect” value (ERBB4-PIK3R1) was “None of these compounds showed an inhibitory effect”.

CS(=O)(=O)CCNCc1ccc(-c2ccc3ncnc(Nc4ccc(OCc5cccc(F)c5)c(Cl)c4)c3c2)o1 [lapatinib, Lapatinib ditosylate] was tested, and the eIPSC amplitude [2] was “increases” and the “ERBB4 phosphorylation at Tyr1056 and Tyr1284” value (ERBB4) was “completely reverted”.

O=c1c(O[C@@H]2O[C@H](CO)[C@@H](O)[C@H](O)[C@H]2O)c(-c2ccc(O)c(O)c2)oc2cc(O)cc(O)c12 [Isoquercitrin] was tested, and the Z-SCORE (NRG1-ERBB4 signaling; [3]) was 0.55.

Work on C[N+]1(C)CCC(OC(=O)C(O)(c2ccccc2)C2CCCC2)C1 (centres unmarked) [Glycopyrrolate, reference compound] yielded a Z-SCORE (NRG1-ERBB4 signaling; [3]) of 0 and a Z-SCORE (NRG1-ERBB4 signaling; [4]) of -0.44.

COc1cc(NC(C)CCCN)c2ncccc2c1 (centres unmarked) [Primaquine Diphosphate, reference compound] showed a Z-SCORE (NRG1-ERBB4 signaling; [4]) of -0.7.

CC[N+](C)(CC)CCOC(=O)C(O)(c1ccccc1)C1CCCCC1 (centres unmarked) [OXYPHENONIUM BROMIDE] showed a Z-SCORE (NRG1-ERBB4 signaling; [3]) of -0.45.

COc1ccc2cc(CCC(C)=O)ccc2c1 [NABUMETONE, reference compound] showed a Z-SCORE (NRG1-ERBB4 signaling; [4]) of 1.61.

NC(=O)c1cccnc1 [NICOTINAMIDE] was tested, and the Z-SCORE (NRG1-ERBB4 signaling; [3]) was 2.52.

COc1ccccc1OCC(O)CN1CCN(CC(=O)Nc2c(C)cccc2C)CC1 (centres unmarked) [Ranolazine dihydrochloride] showed a Z-SCORE (NRG1-ERBB4 signaling; [3]) of 0.21.

CC(C)c1nc(CN(C)C(=O)N[C@H](C(=O)N[C@@H](Cc2ccccc2)C[C@H](O)[C@H](Cc2ccccc2)NC(=O)OCc2cncs2)C(C)C)cs1 [RITONAVIR] gave a Z-SCORE (NRG1-ERBB4 signaling; [3]) of -0.37.

Source: publication PMC5653977 (EMBO Molecular Medicine, 2017)
